Data set [1] can be described thus: solubility in water. It counts as physicochemical.
Data set [2] deals with T1, NPR1-dependent oligomer on the PR-1 promoter (Arabidopsis thaliana, UniProt P93002).
T1 construct: in wild-type plants (WT), such an oligomer forms on the PR-1 promoter; endogenous in cells; host or cells: wild-type Arabidopsis plants
T1 sequence (P93002 1-593): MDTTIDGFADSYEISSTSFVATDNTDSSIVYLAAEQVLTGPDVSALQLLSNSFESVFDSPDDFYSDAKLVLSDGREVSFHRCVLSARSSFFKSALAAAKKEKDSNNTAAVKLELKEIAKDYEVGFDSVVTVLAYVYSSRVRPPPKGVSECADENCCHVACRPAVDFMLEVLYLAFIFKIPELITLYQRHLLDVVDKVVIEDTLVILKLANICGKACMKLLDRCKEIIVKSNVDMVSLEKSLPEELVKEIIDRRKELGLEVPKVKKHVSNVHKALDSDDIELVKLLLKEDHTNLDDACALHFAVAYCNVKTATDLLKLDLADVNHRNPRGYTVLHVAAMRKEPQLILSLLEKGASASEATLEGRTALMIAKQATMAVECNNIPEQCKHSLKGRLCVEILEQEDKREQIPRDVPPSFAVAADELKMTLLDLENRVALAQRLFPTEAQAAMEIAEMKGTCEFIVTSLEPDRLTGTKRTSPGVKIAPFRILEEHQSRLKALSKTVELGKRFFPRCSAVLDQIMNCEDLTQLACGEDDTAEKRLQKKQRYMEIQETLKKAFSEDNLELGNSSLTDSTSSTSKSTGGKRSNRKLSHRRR
Nature of the data set: Cross-linked-chromatin chromatography (3C Method). It counts as in vivo. Particulars: wild-type plants, region −734 to −833. The protocol:
Plant treatment, cross-linking, sonication, and cross-linking reversal were performed as for chromatin-immunoprecipitation (Rochon et al., 2006). Chromatography was as described under “Chromatography”. qPCR was performed with PR1 and Ubiquitin5 primers. PR-1 values were normalized against Ubiquitin5 (see Table 1 for primer sequence).
Although there are no decisive methods to test the stoichiometry of a protein in vivo, it was determined whether or not NPR1-dependent oligomers form on DNA in vivo by combining chromatin cross-linking, gel filtration, and qPCR (the 3C Method). The rationale was that, if an NPR1-dependent oligomer forms on the PR1 promoter in vivo, the presence of PR1 should be detectable by qPCR in the void fraction of an S300 after the chromatin had been cross-linked and sheared by sonication.

Data set [3] concerns PR-1 expression. The experiment in a line: PR-1 expression by quantitative RT-PCR after chemical treatment. It counts as in vivo, Arabidopsis. Particulars: 12 hrs. The protocol: Total RNA was extracted from leaves using the Rneasy plant mini kit (Qiagen) according to the supplier's instructions. After treatment with Dnase I (Invitrogen), first strand cDNA synthesis was generated using SuperScript II reverse transcriptase (Invitrogen), and the (dT)17VN oligo in the presence of 0.4 U Rnasin (Fisher Scientific). The newly-synthesized cDNA was diluted 1/200 to reflect a concentration of 10 ng μL^−1 input total RNA. RT-PCR was performed on a CFX96 spectrofluorometric thermal cycler (BioRad). Firefly luciferase values were normalized against Renilla Luciferase and PR-1 values against Ubiquitin5 (see Table 1 for primer sequence). […] All treatments were for 12 hrs. Values consist of n=3 biological replicates and represent averages±1 SD.

For data set [4], the target named is T2, NPR1 (Arabidopsis thaliana, UniProt P93002).
T2 construct: made in house; host or cells: E. coli
The experiment in a line: Sephacryl S300 gel filtration of Strep-tagged NPR1. Particulars: 1 mM SA, catechol, 4-hydroxy benzoic acid or methyl-salicylate, 30 min; DTT concentration not given. It counts as biochemical. The protocol:
Strep-tagged purified proteins in a final volume of 2 ml were subjected to gel filtration analysis on the Sephacryl S100 HR or Sephacryl S300 HR packed in 50 cm long HR 16 columns (GE Health) and equilibrated with S300 chromatography buffer (50 mM HEPES, pH 7.4, 250 mM NaCl. Elutions, in 0.5 ml fractions, were performed in the same buffer at a flow rate of 0.8 ml/min. Where indicated, proteins were incubated with 1 mM SA, 1 mM catechol, 1 mM 4-hydroxy benzoic acid, or 1 mM methyl-salicylate at room temperature for 30 min prior to chromatography as described above with the exception that the chromatography buffer was supplemented with 1 mM SA, 1 mM catechol, 1 mM 4-hydroxy benzoic acid, or 1 mM methyl-salicylate, respectively. In the case of the EDTA treatment, NPR1 was stripped of its metal by a 50 mM EDTA treatment of 30 min, followed by an incubation of 30 min with 1 mM SA prior to gel filtration. In this case, the chromatography buffer was supplemented with 1 mM SA.
Background: Size exclusion chromatography separates by hydrodynamic size, large species first.

Data set [5] deals with T2, NPR1. Nature of the data set: homologous and heterologous competitive binding curves for the [14C]SA-NPR1 interaction (equilibrium dialysis). Particulars: 0.08 μM NPR1, 0.07 μM [14C]SA. The protocol: Given the dissociation reaction:
For the saturation binding curves (FIGS. 1C and 7D/E), 0.8 μM of NPR1 protein was incubated with a final concentration of 0.007-14 μM [^14C]SA. The data was analyzed by non-linear regression using GraphPad PRISM 4 and fitted to a one-site-binding rectangular hyperbola. For homologous and heterologous competitive binding curves (FIGS. 1E/F and 7F/G), 0.08 μM of NPR1 protein was incubated with a final concentration of 0.07 μM [^14C]SA.
(In equilibrium dialysis free small molecules cross a membrane that holds back macromolecules.)

The mark [6] stands for this setting: 300 μM, fold-induction over water.

Consider `O=C(O)c1cc(Cl)nc(Cl)c1` [INA, 2,6-dichloroisonicotinic acid], for which the solubility in water result in data set [1] is on record as “low solubility in water”. In addition, the “NPR1-dependent oligomer on the PR-1 promoter (void fraction, qPCR)” value in data set [2] is “did not affect the NPR1-dependent oligomer on the PR-1 promoter”. Further, the PR-1 expression result in data set [3] (300 μM) is on record as “poor inducer of PR-1 expression”. Further, in data set [3] (setting [6]), the “PR-1 induction, times less effective than an identical concentration of 4-chloro SA” value amounted to 10 times and the “PR-1 induction, times less effective than an identical concentration of SA” value was 42 times.

Consider `O=C(O)c1cc(Cl)cc(Cl)c1O` [3,5-dichloro SA], for which, in data set [1], the solubility in water entry is “low solubility in water”.

In the case of `O=C(O)c1ccc(Cl)cc1O` [4-chloro SA], the solubility in water result in data set [1] is listed as “low solubility in water”.

Turning to `CSC(=O)c1cccc2nnsc12` [BTH, benzo(1,2,3)thiadiazole-7-carbothioic acid S-methyl ester], the solubility in water result in data set [1] is on record as “low solubility in water”. Further, the “NPR1-dependent oligomer on the PR-1 promoter (void fraction, qPCR)” value in data set [2] is recorded as “reduced the amount of NPR1-dependent oligomer on the PR-1 promoter”. In addition, the PR-1 expression entry in data set [3] (BTH at 100 μM) is listed as “capacity to induce PR-1 expression”.

`Oc1ccccc1O` [catechol]: the “conformation of NPR1 (S300 elution profile)” value (from here on “conformation of NPR1”) in data set [4] is on record as “do not alter the conformation of NPR1”. In data set [5], the “affinity for NPR1 compared with SA (competitive binding)” value (shortened to “affinity for NPR1 compared with SA”) was “do not interact with NPR1 with the same affinity as SA”.

Turning to `O[C@@H](CS)[C@@H](O)CS` [DTT], in data set [4], the “conformation of NPR1” value is recorded as “did not induce a redistribution of the protein to the included volume”.

Turning to `O=C(O)c1cccc(O)c1` [3-hydroxy benzoic acid], the “affinity for NPR1 compared with SA” value in data set [5] is recorded as “do not interact with NPR1 with the same affinity as SA”.

For the compound `O=C(O)c1ccc(O)cc1` [4-hydroxy benzoic acid], in data set [4], the “conformation of NPR1” value is given as “do not alter the conformation of NPR1”. Moreover, the “NPR1-dependent oligomer on the PR-1 promoter (void fraction, qPCR)” value in data set [2] is “did not reduce the amount of NPR1-dependent oligomer”. Also, the “affinity for NPR1 compared with SA” value in data set [5] is recorded as “do not interact with NPR1 with the same affinity as SA”.

The record behind these values is patent publication US10674724B2, “Method of activating immune response in plants” (priority 2012, dated 2020).
